Converted amounts (≈) assume the structure as drawn.
Experiments:
[1] = tested on: caspase-3 in HepG-2 cells; assay: Caspase-3 ELISA in treated HepG-2 cells; type: cell-based, human; conditions: HepG-2 cells treated at the IC50 value, mean ± SE, n = 3
Procedure: (§1) Following the treatment of HepG-2, Caco-2, A549, and BJ-1 cells with the SB-CuO-NPs at their respective IC50 values, as illustrated in Figure 9 and detailed in Table 5, an assessment of the activities of the caspase-3 and Bcl-2 enzymes was conducted in the treated cells. […] This mechanism ultimately triggers apoptosis. Additionally, the increased activity of caspase-3 results in a decrease in the expression of cyclin D1 and CDK-2 mRNA, thereby promoting the arrest of the G1 phase of the cell cycle. Othman et al. further noted that the biosynthesized M-NPs facilitate apoptosis by inhibiting the expression of the PI3K/AKT and Ras/Raf/ERK protein signaling pathways.
(§2) Invitrogen Corporation, following the manufacturer's instructions.

[2] = tested on: human lung cancer (A549) cell line; assay: MTT cytotoxicity, A549
[3] = tested on: caspase-3 in BJ-1 cells; assay: Caspase-3 ELISA in treated BJ-1 cells; type: cell-based, human; conditions: BJ-1 cells treated at the IC50 value, mean ± SE, n = 3
Procedure: as §1, §2

[4] = tested on: Bcl-2 in A549 cells; assay: Bcl-2 ELISA in treated A549 cells; type: cell-based, human; conditions: A549 cells treated at the IC50 value, mean ± SE, n = 3
Procedure: as §1, §2

[5] = tested on: human colon cancer (Caco-2) cell line; assay: MTT cytotoxicity, Caco-2
[6] = molecular target: acetylcholinesterase (AChE) (Homo sapiens, UniProt P22303); assay: biochemical; conditions: mean ± SE, n = 3
Chain of acetylcholinesterase (AChE) (P22303 32-614, species assumed): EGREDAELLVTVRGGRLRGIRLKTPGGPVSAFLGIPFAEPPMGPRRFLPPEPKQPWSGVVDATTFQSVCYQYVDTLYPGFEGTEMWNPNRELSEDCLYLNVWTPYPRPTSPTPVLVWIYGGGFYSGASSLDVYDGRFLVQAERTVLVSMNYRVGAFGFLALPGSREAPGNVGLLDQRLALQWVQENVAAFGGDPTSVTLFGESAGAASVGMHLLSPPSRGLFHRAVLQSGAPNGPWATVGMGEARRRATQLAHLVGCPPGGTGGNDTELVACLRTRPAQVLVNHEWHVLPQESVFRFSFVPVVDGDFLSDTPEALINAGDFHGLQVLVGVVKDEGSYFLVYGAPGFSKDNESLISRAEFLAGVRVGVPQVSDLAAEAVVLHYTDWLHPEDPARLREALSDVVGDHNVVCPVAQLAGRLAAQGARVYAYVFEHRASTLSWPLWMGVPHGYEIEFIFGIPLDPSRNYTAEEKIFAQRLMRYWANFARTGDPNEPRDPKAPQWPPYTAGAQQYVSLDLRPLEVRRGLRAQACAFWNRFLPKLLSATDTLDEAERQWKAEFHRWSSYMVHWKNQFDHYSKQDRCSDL
Procedure: The absorbance was measured at 540 nm using a UV-Visible spectrophotometer. The IC50 of each tested sample was calculated by plotting a curve using a series of sample concentrations against the percent of α-amylase inhibition.
The inhibition percentage (%) of the α-glucosidase enzyme was determined using the […]
standard drug. Five μL of the α-glucosidase solution (10 units mL−1, 0.1moll−1 potassium phosphate buffer, pH 6.8) was pre -mixed with 10 μL of the sample solution at different concentrations (in 10% DMSO) i n 620 μL of 0.1 moll−1 potassium […]
phosphate buffer (pH 6.8). […]
phenyl glucopyranoside (pNPG, 10 mmoll−1) as a substrate was added to the mixture […]
minutes, followed by the addition of 650 μL of 1 moll−1 Na2CO3 solution to terminate the reaction. The amount of released product (p-nitro phenol) was measured at 410 […]
activity. The inhibition assay was performed in triplicate for all tests. The IC50 of each tested sample was calculated by plotting a curve using a series of sample concentrations against the percent of α-glucosidase inhibition.
3.4. Anti-Alzheimer's activity
In this study, we assessed the inhibition percentage of the acetylcholinesterase (AChE) enzyme using Ellman's method with donepezil as the standard drug. […] After incubation, 5 µL of AChE at a concentration of 0.3 U/mL was added to start the reaction, and the absorbance […]

[7] = tested on: normal human fibroblast (BJ-1) cell line; assay: MTT cytotoxicity, BJ-1; conditions: Homo sapiens, Fibroblast, 48 h, read-out: Median Inhibitory Concentration (IC50) BJ-1
[8] = MTT cytotoxicity, BJ-1; conditions: human, BJ-1 normal fibroblast cells
[9] = tested on: Bcl-2 in HepG-2 cells; assay: Bcl-2 ELISA in treated HepG-2 cells; type: cell-based, human; conditions: HepG-2 cells treated at the IC50 value, mean ± SE, n = 3
Procedure: as §1, §2

[10] = tested on: Bcl-2 in BJ-1 cells; assay: Bcl-2 ELISA in treated BJ-1 cells; type: cell-based, human; conditions: BJ-1 cells treated at the IC50 value, mean ± SE, n = 3
Procedure: as §1, §2

[11] = molecular target: T1, COX-1 (Ovis aries, UniProt P05979); assay: COX-1 inhibition assay (Cayman kit); type: biochemical, ovine; conditions: mean ± SE, n = 3
T1 construct: purchased Cayman 560131
T1 sequence (P05979 25-600): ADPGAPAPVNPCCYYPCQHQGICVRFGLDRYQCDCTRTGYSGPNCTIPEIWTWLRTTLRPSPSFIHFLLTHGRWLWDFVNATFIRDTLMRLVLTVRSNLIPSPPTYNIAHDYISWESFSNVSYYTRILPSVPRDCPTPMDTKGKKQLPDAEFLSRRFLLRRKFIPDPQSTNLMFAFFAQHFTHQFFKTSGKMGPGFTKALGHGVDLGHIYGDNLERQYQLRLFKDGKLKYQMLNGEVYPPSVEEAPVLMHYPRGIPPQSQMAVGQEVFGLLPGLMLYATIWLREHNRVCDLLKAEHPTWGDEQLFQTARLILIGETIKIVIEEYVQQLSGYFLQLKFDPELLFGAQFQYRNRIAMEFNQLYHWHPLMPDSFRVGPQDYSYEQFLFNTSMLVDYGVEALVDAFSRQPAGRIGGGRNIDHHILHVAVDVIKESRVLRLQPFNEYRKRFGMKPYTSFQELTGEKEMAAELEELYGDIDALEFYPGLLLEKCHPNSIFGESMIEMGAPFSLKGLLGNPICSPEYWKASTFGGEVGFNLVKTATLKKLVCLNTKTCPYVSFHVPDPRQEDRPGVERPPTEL

## Cc1nn(-c2ccccc2)c(Cl)c1C=NN=C1C(=O)Nc2ccccc21 [SB]
[1]
  Caspase-3: 165.55 ± 1.29 pg/mL
[2]; A549
  viability at 31.13 µg/mL: 86.2%
  viability at 62.5 µg/mL: 70.3%
  viability at 125 µg/mL: 44.8%
  viability at 250 µg/mL: 38.5%
  viability at 500 µg/mL: 18.8%
[2]; A549, 48 h, read-out: Median Inhibitory Concentration (IC50) A549
  IC50: 110 ± 2.49 µg/mL (≈ 303 µM)
[3]
  Caspase-3: 109.07 ± 0.18 pg/mL
[4]
  Bcl-2: 8.26 ± 0.03 ng/mL
[5]; Caco-2
  viability at 31.13 µg/mL: 86%
  viability at 62.5 µg/mL: 72.2%
  viability at 125 µg/mL: 48.6%
  viability at 250 µg/mL: 38.4%
  viability at 500 µg/mL: 18.6%
[5]; Caco-2, 48 h, read-out: Median Inhibitory Concentration (IC50) Caco-2
  IC50: 115 ± 3.25 µg/mL (≈ 317 µM)
[6]; at 100 µg/mL, read-out: Acetylcholinesterase (AChE) Inhib. (%)
  inhibition at 100 µg/mL: 32.64 ± 0.16%
[6]
  IC50: 19.2 µM
[7]
  IC50: 168 ± 2.22 µg/mL (≈ 461 µM)
[8]
  viability at 48 h, 31.13 μg/mL: 90.9%
  viability at 48 h, 62.5 μg/mL: 80.9%
  viability at 48 h, 125 μg/mL: 62.7%
  viability at 48 h, 250 μg/mL: 47.2%
  viability at 48 h, 500 μg/mL: 19.1%
[9]
  Bcl-2: 7.32 ± 0.10 ng/mL
[10]
  Bcl-2: 4.98 ± 0.03 ng/mL
[11]; at 100 µg/mL, read-out: COX-1 Inhib. (%)
  inhibition at 100 µg/mL: 31.61 ± 0.18%
[11]
  IC50: 27.1 µM

Reference: paper PMC11859031, “Assessment of the In Vitro Biological Activities of Schiff Base-Synthesized Copper Oxide Nanoparticles as an Anti-Diabetic, Anti-Alzheimer, and Anti-Cancer Agent” (Pharmaceutics, 2025)
